Data from BigSolDB 2.1.

Cc1c(-c2ccccc2)oc2c(C(=O)O)cccc2c1=O
solubility (mole fraction) (in DMF, 278.15 K): 0.0129
solubility (mole fraction) (in DMF, 283.15 K): 0.0165
solubility (mole fraction) (in DMF, 288.15 K): 0.0213
solubility (mole fraction) (in DMF, 293.15 K): 0.0259
solubility (mole fraction) (in DMF, 298.15 K): 0.0321
solubility (mole fraction) (in DMF, 303.15 K): 0.0399
solubility (mole fraction) (in DMF, 308.15 K): 0.0485
solubility (mole fraction) (in DMF, 313.15 K): 0.0587
solubility (mole fraction) (in DMF, 318.15 K): 0.072
solubility (mole fraction) (in DMF, 323.15 K): 0.0889
solubility (mole fraction) (in THF, 278.15 K): 0.013
solubility (mole fraction) (in THF, 283.15 K): 0.0154
solubility (mole fraction) (in THF, 288.15 K): 0.0183
solubility (mole fraction) (in THF, 293.15 K): 0.0217
solubility (mole fraction) (in THF, 298.15 K): 0.0261
solubility (mole fraction) (in THF, 303.15 K): 0.0313
solubility (mole fraction) (in THF, 308.15 K): 0.0371
solubility (mole fraction) (in THF, 313.15 K): 0.0443
solubility (mole fraction) (in THF, 318.15 K): 0.0517
solubility (mole fraction) (in THF, 323.15 K): 0.061
solubility (mole fraction) (in acetone, 278.15 K): 0.0019
solubility (mole fraction) (in acetone, 283.15 K): 0.00219
solubility (mole fraction) (in acetone, 288.15 K): 0.00259
solubility (mole fraction) (in acetone, 293.15 K): 0.00301
solubility (mole fraction) (in acetone, 298.15 K): 0.0034
solubility (mole fraction) (in acetone, 303.15 K): 0.00381
solubility (mole fraction) (in acetone, 308.15 K): 0.00438
solubility (mole fraction) (in acetone, 313.15 K): 0.00489
solubility (mole fraction) (in acetone, 318.15 K): 0.00546
solubility (mole fraction) (in acetone, 323.15 K): 0.00617
solubility (mole fraction) (in acetonitrile, 278.15 K): 0.000211
solubility (mole fraction) (in acetonitrile, 283.15 K): 0.000247
solubility (mole fraction) (in acetonitrile, 288.15 K): 0.00031
solubility (mole fraction) (in acetonitrile, 293.15 K): 0.00037
solubility (mole fraction) (in acetonitrile, 298.15 K): 0.000458
solubility (mole fraction) (in acetonitrile, 303.15 K): 0.000542
solubility (mole fraction) (in acetonitrile, 308.15 K): 0.000641
solubility (mole fraction) (in acetonitrile, 313.15 K): 0.000768
solubility (mole fraction) (in acetonitrile, 318.15 K): 0.000893
solubility (mole fraction) (in acetonitrile, 323.15 K): 0.00103
solubility (mole fraction) (in ethanol, 278.15 K): 0.00108
solubility (mole fraction) (in ethanol, 283.15 K): 0.00128
solubility (mole fraction) (in ethanol, 288.15 K): 0.00153
solubility (mole fraction) (in ethanol, 293.15 K): 0.00181
solubility (mole fraction) (in ethanol, 298.15 K): 0.00216
solubility (mole fraction) (in ethanol, 303.15 K): 0.00258
solubility (mole fraction) (in ethanol, 308.15 K): 0.00304
solubility (mole fraction) (in ethanol, 313.15 K): 0.00363
solubility (mole fraction) (in ethanol, 318.15 K): 0.00431
solubility (mole fraction) (in ethanol, 323.15 K): 0.00512
solubility (mole fraction) (in ethyl acetate, 278.15 K): 0.00088
solubility (mole fraction) (in ethyl acetate, 283.15 K): 0.00114
solubility (mole fraction) (in ethyl acetate, 288.15 K): 0.00141
solubility (mole fraction) (in ethyl acetate, 293.15 K): 0.00178
solubility (mole fraction) (in ethyl acetate, 298.15 K): 0.00221
solubility (mole fraction) (in ethyl acetate, 303.15 K): 0.00272
solubility (mole fraction) (in ethyl acetate, 308.15 K): 0.00341
solubility (mole fraction) (in ethyl acetate, 313.15 K): 0.00416
solubility (mole fraction) (in ethyl acetate, 318.15 K): 0.00494
solubility (mole fraction) (in ethyl acetate, 323.15 K): 0.00594
solubility (mole fraction) (in isobutanol, 278.15 K): 0.000942
solubility (mole fraction) (in isobutanol, 283.15 K): 0.00118
solubility (mole fraction) (in isobutanol, 288.15 K): 0.00143
solubility (mole fraction) (in isobutanol, 293.15 K): 0.00175
solubility (mole fraction) (in isobutanol, 298.15 K): 0.00214
solubility (mole fraction) (in isobutanol, 303.15 K): 0.00261
solubility (mole fraction) (in isobutanol, 308.15 K): 0.00313
solubility (mole fraction) (in isobutanol, 313.15 K): 0.00376
solubility (mole fraction) (in isobutanol, 318.15 K): 0.00458
solubility (mole fraction) (in isobutanol, 323.15 K): 0.0056
solubility (mole fraction) (in methanol, 278.15 K): 0.000344
solubility (mole fraction) (in methanol, 283.15 K): 0.000449
solubility (mole fraction) (in methanol, 288.15 K): 0.000587
solubility (mole fraction) (in methanol, 293.15 K): 0.000767
solubility (mole fraction) (in methanol, 298.15 K): 0.00102
solubility (mole fraction) (in methanol, 303.15 K): 0.00136
solubility (mole fraction) (in methanol, 308.15 K): 0.00181
solubility (mole fraction) (in methanol, 313.15 K): 0.00242
solubility (mole fraction) (in methanol, 318.15 K): 0.00316
solubility (mole fraction) (in methanol, 323.15 K): 0.00419
solubility (mole fraction) (in methyl acetate, 278.15 K): 0.000929
solubility (mole fraction) (in methyl acetate, 283.15 K): 0.00112
solubility (mole fraction) (in methyl acetate, 288.15 K): 0.00145
solubility (mole fraction) (in methyl acetate, 293.15 K): 0.0019
solubility (mole fraction) (in methyl acetate, 298.15 K): 0.00245
solubility (mole fraction) (in methyl acetate, 303.15 K): 0.00302
solubility (mole fraction) (in methyl acetate, 308.15 K): 0.00382
solubility (mole fraction) (in methyl acetate, 313.15 K): 0.00473
solubility (mole fraction) (in methyl acetate, 318.15 K): 0.0057
solubility (mole fraction) (in methyl acetate, 323.15 K): 0.00673
solubility (mole fraction) (in n-butyl acetate, 278.15 K): 0.000947
solubility (mole fraction) (in n-butyl acetate, 283.15 K): 0.0011
solubility (mole fraction) (in n-butyl acetate, 288.15 K): 0.00125
solubility (mole fraction) (in n-butyl acetate, 293.15 K): 0.00141
solubility (mole fraction) (in n-butyl acetate, 298.15 K): 0.00158
solubility (mole fraction) (in n-butyl acetate, 303.15 K): 0.00178
solubility (mole fraction) (in n-butyl acetate, 308.15 K): 0.00197
solubility (mole fraction) (in n-butyl acetate, 313.15 K): 0.00221
solubility (mole fraction) (in n-butyl acetate, 318.15 K): 0.00242
solubility (mole fraction) (in n-butyl acetate, 323.15 K): 0.00268
